The record followed here is patent publication US6949648B2, “Condensed pyrazole derivatives, process for producing the same and use thereof” (Takeda Pharmaceutical Company Limited, priority 2000, dated 2005).

Data set [1] concerns OVA-specific IgE. The experiment in a line: Effect on antibody production of ovalbumin-sensitized mice: IgE. It counts as in vivo, BALB/c mouse. As to conditions: Mus musculus, po, 264 h; 30 mg/kg b.w. orally, 5 days a week during 9-day period; serum 11 days after first sensitization, ELISA; read-out: Suppression Rate (%) IgE. The procedure: (§1) Effect on Antibody Production of Mice Sensitized by Controlled-Release Ovalbumin
(§2) A male BALB/c mouse (Charles River) of 7 weeks old was sensitized by intraabdominal administration, twice at an interval of a week, of a mixture of 10 μg/mouse of ovalbumin (OVA; albumin chicken egg grade III; Sigma Chemical) and 1 mg of aluminum hydroxide hydrate gel suspension (Alum; LSL Co. LTD.). After 11 days from the first sensitization, blood was collected from beneath eye under ether anesthesia, and the amount of OVA-specific IgE, IgG1 (Th2 type) and IgG2a (Th1 type) antibodies in the serum were determined by the ELISA method. A sample compound (30 mg/kg b.w.) was suspended in 0.4 ml of methylcellulose (MC), and the suspension was orally administered, 5 days a week during the 9-day period from the initiation day of sensitization to the day before the day of blood sample collection (1 Group, n=8 to 10).

Data set [2] relates to OVA-specific IgG2a (Th1 type). The experiment in a line: Effect on antibody production of ovalbumin-sensitized mice: IgG2a. It counts as in vivo, BALB/c mouse. As to conditions: Mus musculus, po, 264 h; 30 mg/kg b.w. orally, 5 days a week during 9-day period; serum 11 days after first sensitization, ELISA; read-out: Suppression Rate (%) IgG2a. The procedure: as §1, §2
For data set [3], the system named is IFN-γ. The experiment in a line: Effect on cytokine production of mice sensitized by controlled-release ovalbumin: IFN-γ. It is filed as in vivo, BALB/c mouse. As to conditions: Mus musculus, po; 30 mg/kg b.w. orally, 5 days a week during 9-day period; splenic cells incubated with OVA 3 days, ELISA; read-out: Suppression Rate (%) IFN-γ. How it is done:
(§3) Effect on Cytokine Production of Mice Sensitized by Controlled-Release Ovalbumin
(§4) An osmotic pump (Alza Co., USA) containing a solution (100 μL) containing 1.0 mg of ovalbumin (OVA; albumin chicken egg grade III, Sigma Chemical) was implanted in the back of a male BALB/c mouse (Charles River) of 8 weeks old under ether anesthesia, and the mouse is sensitized by the controlled-release ovalbumin. After 11 days from implantation of the pump, a sample of spleen was removed, and a splenic cell suspension was prepared by the use of the RPMI-1640 medium (Bio Whittaker Inc., USA) containing inactivated fetal bovine serum (10% V/V; Bio Whittaker Inc., USA), 2-mercaptoethanol (50 μM), and gentamicin (20 μg/ml). A sample compound (30 mg/kg b.w.) was suspended in 0.4 ml of methylcellulose (MC), and the suspension was orally administered, 5 days a week during the 9-day period from the initiation day of sensitization to the day before the day of blood sample collection (1 Group, n=10). The splenic cell suspension was adjusted to a concentration of 5.0×10^6 cells/ml, and the resulting suspension (100 μl) was pipetted onto a 96 well U-bottomed plate, each of the wells containing a solution (100 μl/well) of 400 μg/ml OVA, and the plate was incubated at 37° C. in a 5% carbon dioxide gas incubator for 3 days. The cultured media were centrifuged at 200×g for 5 minutes, and the supernatants were collected and the production of IL-4, IL-5 and IFN-γ in each of the supernatants was determined by the ELISA method [Mouse IL-4 Bulk Kit (PerSeptive Biosystems), Mouse IL-5 Bulk Kit (PerSeptive Biosystems), and Mouse IFN-γ Bulk Kit (PerSeptive Biosystems)].

Data set [4] has as its system IL-5. The experiment in a line: Effect on cytokine production of mice sensitized by controlled-release ovalbumin: IL-5. The following applies: Mus musculus, po; 30 mg/kg b.w. orally, 5 days a week during 9-day period; splenic cells incubated with OVA 3 days, ELISA; read-out: Suppression Rate (%) IL-5. It counts as in vivo, BALB/c mouse. The procedure:
as §3, §4

For data set [5], the system named is IL-4. Kind of data set: Effect on cytokine production of mice sensitized by controlled-release ovalbumin: IL-4. As to conditions: Mus musculus, po; 30 mg/kg b.w. orally, 5 days a week during 9-day period; splenic cells incubated with OVA 3 days, ELISA; read-out: Suppression Rate (%) IL-4. It counts as in vivo, BALB/c mouse. How it is done: as §3, §4

Counter-ions that a name gives are not always drawn.

In turn, `Cc1nn(-c2ccccn2)c2nc(O)cc(-c3ccccc3)c12` [Example 1-27, 3-Methyl-4-phenyl-1-(2-pyridinyl)-1H-pyrazolo[3,4-b]pyridin-6-ol] yielded a melting point of 195 to 196 °C. For the same molecule, in data set [1], the inhibition in vivo at 30 mg/kg stood at 24.3%. In addition, the inhibition in vivo at 30 mg/kg in data set [2] was 27.1%.

`Cc1nn(-c2ccccn2)c2nc(O)c3c(c12)CCCC3` [Example 1-29, 1-Methyl-3-(2-pyridinyl)-6,7,8,9-tetrahydro-3H-pyrazolo[3,4-c]isoquinolin-5-ol]: the melting point was in the range of 248 to 249 °C. Further, in data set [1], the inhibition in vivo at 30 mg/kg was 19.1%. For the same molecule, the inhibition in vivo at 30 mg/kg in data set [2] is -22.6%.

The molecule `Cc1nn(-c2ccccn2)c2nc(O)c(Cc3ccccc3)c(C)c12` [Example 1-25, 5-Benzyl-3,4-dimethyl-1-(2-pyridinyl)-1H-pyrazolo[3,4-b]pyridin-6-ol] had a melting point of 208 to 209 °C. Further, in data set [1], the inhibition in vivo at 30 mg/kg came out at 33.9%. The inhibition in vivo at 30 mg/kg in data set [2] came to 16.5%.

Take `COc1cc2[nH]c3c(c(C)nn3-c3ccccn3)c(=O)c2cc1OC` [Example 1-49, 6,7-Dimethoxy-3-methyl-1-(2-pyridinyl)-1,9-dihydro-4H-pyrazolo[3,4-b]quinolin-4-one]: the figures for the inhibition in vivo at 30 mg/kg in data set [3], in data set [4] and in data set [5] were -9%, 11.8% and 13.9%, respectively.

`Cc1nn(Cc2ccccn2)c2nc3ccccc3c(N)c12` [Example 1-68, 3-Methyl-1-(2-pyridinylmethyl)-1H-pyrazolo[3,4-b]quinolin-4-ylamine]: the inhibition in vivo at 30 mg/kg was determined as 31.6% in data set [1] and 31.7% in data set [2].

Consider `Cc1nn(-c2ccccn2)c2[nH]c3ccc(F)cc3c(=O)c12` [Example 1-53, 6-Fluoro-3-methyl-1-(2-pyridinyl)-1,9-dihydro-4H-pyrazolo[3,4-b]quinolin-4-one], for which the figures for the inhibition in vivo at 30 mg/kg in data set [1] and in data set [2] were 8% and 36.1%, respectively.

On to `Cc1ccc(-n2nc(C)c3c(N)c4ccccc4nc32)nc1` [Example 1-54, 3-Methyl-1-(5-methyl-2-pyridinyl)-1H-pyrazolo[3,4-b]quinolin-4-ylamine], for which the inhibition in vivo at 30 mg/kg was 17.6% in data set [1] and -148% in data set [2].

Turning to `Cc1nn(-c2cccnc2)c2nc3ccccc3c(N)c12` [Example 1-63, 3-Methyl-1-(3-pyridinyl)-1H-pyrazolo[3,4-b]quinolin-4-ylamine dihydrochloride], the inhibition in vivo at 30 mg/kg in data set [1] was 25.2%; in data set [2], -5.8%.

Consider `Cc1ccc(-n2nc(C)c3c(=O)c4ccccc4[nH]c32)nc1` [Example 1-55, 3-Methyl-1-(5-methyl-2-pyridinyl)-1,9-dihydro-4H-pyrazolo[3,4-b]quinolin-4-one hydrochloride], for which the inhibition in vivo at 30 mg/kg in data set [1] turned out to be 11.7%; in data set [2], 13.7%.

On to `Cc1nn(-c2ccccn2)c2nc(-c3ccccc3)cc(O)c12` [Example 1-22, 3-Methyl-6-phenyl-1-(2-pyridinyl)-1H-pyrazolo[3,4-b]pyridin-4-ol], for which the melting point fell in the range of 198 to 199 °C. For the same molecule, the inhibition in vivo at 30 mg/kg in data set [1] is 14%. Besides, in data set [2], the inhibition in vivo at 30 mg/kg is -2.1%.

For `Cc1cccc2c(N)c3c(C)nn(-c4ccc5ccccc5n4)c3nc12` [Example 1-66, 3,8-Dimethyl-1-(2-quinolinyl)-1H-pyrazolo[3,4-b]quinolin-4-ylamine], the inhibition in vivo at 30 mg/kg worked out at 50% in data set [3], 34.3% in data set [4] and 27.1% in data set [5].

`Cc1nn(-c2ccccn2)c2nc3ccccc3c(N(C)C)c12` [Example 1-38, N,N-Dimethyl-N-[3-methyl-1-(2-pyridinyl)-1H-pyrazolo[3,4-b]quinolin-4-yl]amine] returned a melting point of 98 to 101 °C. Further, the inhibition in vivo at 30 mg/kg in data set [1] stood at 36.1%. Further, the inhibition in vivo at 30 mg/kg in data set [2] was -122%.

For the molecule `Cl.Nc1c2ccccc2nc2c1cnn2-c1ccccn1` [Example 1-67, 1-(2-Pyridinyl)-1H-pyrazolo[3,4-b]quinolin-4-ylamine hydrochloride], the melting point was in the range of 312 to 315 °C. In data set [1], the inhibition in vivo at 30 mg/kg stood at 10.5%. In data set [2], the inhibition in vivo at 30 mg/kg is -30.7%.

As for `Cc1cccnc1-n1nc(C)c2c(Cl)c3ccccc3nc21` [Example 1-56, 4-Chloro-3-methyl-1-(3-methyl-2-pyridinyl)-1H-pyrazolo[3,4-b]quinoline], the inhibition in vivo at 30 mg/kg worked out at 12.2% in data set [3], 12.2% in data set [4] and 23.7% in data set [5].

For `Cc1cccc2c(N)c3c(C)nn(-c4ccccn4)c3nc12` [Example 1-46, 3,8-Dimethyl-1-(2-pyridinyl)-1H-pyrazolo[3,4-b]quinolin-4-ylamine hydrochloride], the inhibition in vivo at 30 mg/kg is -132% in data set [3], 5.2% in data set [4] and 80.4% in data set [5].

With `CCOC(=O)c1cnc2c(c(C)nn2-c2ccccn2)c1O` [Example 1-1, Ethyl 4-hydroxy-3-methyl-1-(2-pyridinyl)-1H-pyrazolo[3,4-b]pyridine-5-carboxylate], the melting point is 166 to 169 °C. Moreover, the inhibition in vivo at 30 mg/kg in data set [1] is 46.3%. Also, the inhibition in vivo at 30 mg/kg in data set [2] was determined as 17.8%.

`CCOc1cccc(-n2nc(C)c3c(=O)c4cccc(C)c4[nH]c32)n1` [Example 1-61, 3,8-Dimethyl-1-(6-ethoxy-2-pyridinyl)-1,9-dihydro-4H-pyrazolo[3,4-b]quinolin-4-one]: the inhibition in vivo at 30 mg/kg in data set [3] was -8.7%; in data set [4], 26.1%; in data set [5] it was 16%.

With `Cc1nn(-c2ccccn2)c2ncc(C(=O)O)c(O)c12` [Example 1-2, 4-Hydroxy-3-methyl-1-(2-pyridinyl)-1H-pyrazolo[3,4-b]pyridine-5-carboxylic acid], the inhibition in vivo at 30 mg/kg in data set [1] was 29.2%; in data set [2] it was -67.9%.

In turn, `CNc1c2ccccc2nc2c1c(C)nn2-c1ccccn1.Cl` [Example 1-37, N-Methyl-N-[3-methyl-1-(2-pyridinyl)-1H-pyrazolo[3,4-b]quinolin-4-yl]amine hydrochloride] gave a melting point of 229 to 232 °C. In addition, the inhibition in vivo at 30 mg/kg in data set [1] stood at 29.6%. Besides, the inhibition in vivo at 30 mg/kg in data set [2] was 9.6%.

Take `Cc1nn(-c2ccccn2)c2nc3ccc(F)cc3c(Cl)c12` [Example 1-52, 4-Chloro-6-fluoro-3-methyl-1-(2-pyridinyl)-1H-pyrazolo[3,4-b]quinoline]: the inhibition in vivo at 30 mg/kg in data set [1] was found to be 41.1%; in data set [2], 39.9%.

With `Cc1nn(-c2cccnc2)c2[nH]c3ccccc3c(=O)c12` [Example 1-64, 3-Methyl-1-(3-pyridinyl)-1,9-dihydro-4H-pyrazolo[3,4-b]quinolin-4-one], the figures for the inhibition in vivo at 30 mg/kg in data set [3], in data set [4] and in data set [5] were -6.8%, 39.9% and 49.1%, respectively.

In the case of `Cc1nn(-c2ccccn2)c2nccc(O)c12` [Example 1-3, 3-Methyl-1-(2-pyridinyl)-1H-pyrazolo[3,4-b]pyridin-4-ol], the inhibition in vivo at 30 mg/kg in data set [1] was 19%; in data set [2], -39.5%.

`Cc1nn(-c2ccccn2)c2[nH]c3ccccc3c(=S)c12` [Example 1-42, 3-Methyl-1-(2-pyridinyl)-1,9-dihydro-4H-pyrazolo[3,4-b]quinolin-4-thione] gave a melting point of 252 to 253 °C. The inhibition in vivo at 30 mg/kg in data set [1] is 24%. For the same molecule, in data set [2], the inhibition in vivo at 30 mg/kg came out at 14.3%.
